Patent US9113629B2, “4-amino-6-(4-substituted-phenyl)-picolinates and 6-amino-2-(4-substituted-phenyl)-pyrimidine-4-carboxylates and their use as herbicides” (DOW AGROSCIENCES LLC, priority 2013, dated 2015)
Like-named read-outs stand apart in the source and are kept apart here.

Columns and labels:
[1] = system: Key Grass and Sedge Weeds as well as Grass Crops; experiment: Post-emergent Test II herbicidal activity (Table 6); format: in vivo; conditions: post-emergence, 336 h; for pest or weed control at 70 g/ha: application rate 70 g ai/ha; for pest or weed control at 140 g/ha: application rate 140 g ai/ha
How it was run: (§1)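 Scoring: visual, 0–100% injury at 14 d versus untreated. Treatment: overhead track spray, 187 L/ha, onto plants at the first–second true leaf stage. Growth: greenhouse, ~15 h light, 23–29 °C day, 22–28 °C night.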

[2] = system: Key Broadleaf Weed and Crop Species; experiment: Post-emergent Test II herbicidal activity (Table 5); format: in vivo; conditions: post-emergence, 336 h, post-emergent, 14 days after application; for pest or weed control at 70 g/ha: 70 g ai/ha; for pest or weed control at 140 g/ha: 140 g ai/ha
How it was run: as §1

[3] = Triticum aestivum, TRZSS (wheat), read-out: Visual Growth Reduction (%) 14 Days After Application, TRZSS
[4] = CYPES: yellow nutsedge (Cyperus esculentus), read-out: Visual Growth Reduction (%) 14 Days After Application, CYPES
[5] = DIGSA: crabgrass (Digitaria sanguinalis), read-out: Visual Growth Reduction (%) 14 Days After Application, DIGSA
[6] = ECHCG: barnyardgrass (Echinochloa crus-galli), read-out: Visual Growth Reduction (%) 14 Days After Application, ECHCG
[7] = ORYSA: rice (Oryza sativa), read-out: Visual Growth Reduction (%) 14 Days After Application, ORYSA
[8] = SETFA: giant foxtail (Setaria faberi), read-out: Visual Growth Reduction (%) 14 Days After Application, SETFA
[9] = SORVU: grain sorghum (Sorghum vulgare), read-out: Visual Growth Reduction (%) 14 Days After Application, SORVU
[10] = ZEAMX: maize, corn (Zea mays), read-out: Visual Growth Reduction (%) 14 Days After Application, ZEAMX
[11] = ABUTH: velvetleaf (Abutilon theophrasti), read-out: Visual Growth Reduction (%) 14 Days After Application ABUTH
[12] = AMARE: redroot pigweed (Amaranthus retroflexus), read-out: Visual Growth Reduction (%) 14 Days After Application AMARE
[13] = BRSNN: oilseed-rape, canola (Brassica napus), read-out: Visual Growth Reduction (%) 14 Days After Application BRSNN
[14] = CHEAL: lambsquarters (Chenopodium album), read-out: Visual Growth Reduction (%) 14 Days After Application CHEAL
[15] = EPHHL: wild poinsettia (Euphorbia heterophylla), read-out: Visual Growth Reduction (%) 14 Days After Application EPHHL
[16] = HELAN: sunflower (Helianthus annuus), read-out: Visual Growth Reduction (%) 14 Days After Application HELAN
[17] = VIOTR: wild pansy (Viola tricolor), read-out: Visual Growth Reduction (%) 14 Days After Application VIOTR

## C=Cc1c(C(=O)OC)nc(-c2ccc(C#N)cc2)c(F)c1N [Compound 107, methyl 4-amino-6-(4-cyanophenyl)-5-fluoro-3-vinylpicolinate]
[1]; [3]
  pest or weed control at 70 g/ha: 0 to 29%
  pest or weed control at 140 g/ha: 0 to 29%
[1]; [4]
  pest or weed control at 70 g/ha: 0 to 29%
  pest or weed control at 140 g/ha: 60 to 74%
[1]; [5]
  pest or weed control at 70 g/ha: 0 to 29%
  pest or weed control at 140 g/ha: 0 to 29%
[1]; [6]
  pest or weed control at 70 g/ha: 0 to 29%
  pest or weed control at 140 g/ha: 0 to 29%
[1]; [7]
  pest or weed control at 70 g/ha: 0 to 29%
  pest or weed control at 140 g/ha: 0 to 29%
[1]; [8]
  pest or weed control at 70 g/ha: 0 to 29%
  pest or weed control at 140 g/ha: 0 to 29%
[1]; [9]
  pest or weed control at 70 g/ha: 0 to 29%
  pest or weed control at 140 g/ha: 0 to 29%
[1]; [10]
  pest or weed control at 70 g/ha: 0 to 29%
  pest or weed control at 140 g/ha: 0 to 29%
[2]; [11]
  pest or weed control at 70 g/ha: 75 to 84%
  pest or weed control at 140 g/ha: 75 to 84%
[2]; [12]
  pest or weed control at 70 g/ha: 0 to 29%
  pest or weed control at 140 g/ha: 0 to 29%
[2]; [13]
  pest or weed control at 70 g/ha: 0 to 29%
  pest or weed control at 140 g/ha: 0 to 29%
[2]; [14]
  pest or weed control at 70 g/ha: 95 to 100%
  pest or weed control at 140 g/ha: 95 to 100%
[2]; [15]
  pest or weed control at 70 g/ha: 95 to 100%
  pest or weed control at 140 g/ha: 95 to 100%
[2]; [16]
  pest or weed control at 70 g/ha: 75 to 84%
  pest or weed control at 140 g/ha: 85 to 94%
[2]; [17]
  pest or weed control at 70 g/ha: 0 to 29%
  pest or weed control at 140 g/ha: 0 to 29%
